# Laboratory results published in the supplement of paper PMC10331698.
# ± gives the standard deviation of the averaged measurements.
# Columns and labels:
# Test in all cases: level (log10 ratio to DMSO vehicle control); higher = higher biomarker level / cell amount than vehicle control
# [1] = compound: C=C(C)C(=O)OCC(F)(F)C(F)(F)C(F)(F)F [2,2,3,3,4,4,4-Heptafluorobutyl methacrylate]; settings: in DMSO
# Procedure: (§1)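 BioMAP Diversity Plus panel of 12 human primary cell co-culture systems (3C, 4H, LPS, SAg, BT, BF4T, BE3C, CASM3C, HDF3CGF, KF3CT, MyoF, Mphg). Compounds were added 1 h before stimulation and left for 24 h (MyoF 48 h; BT 72 h for soluble read-outs or 6 d for IgG). Biomarkers were read by ELISA, cytotoxicity by SRB, PBMC viability and proliferation by Alamar Blue. Each well value was divided by the mean of 8 DMSO control wells on the same plate and log10 transformed; duplicate blinded samples were tested at 4 concentrations.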
# Perfluoropinacol = compound: OC(C(F)(F)F)(C(F)(F)F)C(O)(C(F)(F)F)C(F)(F)F [Perfluoropinacol]; settings: in DMSO
# Procedure: as §1
# [2] = compound: OCCC(F)(F)C(F)(F)C(F)(F)C(F)(F)C(F)(F)C(F)(F)C(F)(F)C(F)(F)F [8:2 Fluorotelomer alcohol]; settings: 6700 nM; in DMSO
# Procedure: as §1
# [3] = compound: OCC(F)(F)C(F)(F)C(F)(F)C(F)(F)C(F)(F)C(F)(F)C(F)(F)C(F)(F)CO [1H,1H,10H,10H-Perfluorodecane-1,10-diol]; settings: in DMSO
# Procedure: as §1
# [4] = compound: FC(F)(F)COC(OCC(F)(F)F)OCC(F)(F)F [tris(Trifluoroethoxy)methane]; settings: in DMSO
# Procedure: as §1
# Methotrexate = compound: CN(Cc1cnc2nc(N)nc(N)c2n1)c1ccc(C(=O)N[C@@H](CCC(=O)O)C(=O)O)cc1 [Methotrexate]; settings: in DMSO
# Procedure: as §1
# [5] = compound: Cc1ccc(S(=O)(=O)OCC(F)(F)C(F)(F)C(F)(F)C(F)(F)C(F)(F)C(F)F)cc1 [1H,1H,7H-Perfluoroheptyl 4-methylbenzenesulfonate]; settings: in DMSO
# Procedure: as §1
Test System,level (log10) ([1]; 6700 nM),level (log10) ([1]; 20000 nM),level (log10) ([1]; 60000 nM),level (log10) (Perfluoropinacol; 6700 nM),level (log10) (Perfluoropinacol; 20000 nM),level (log10) [2],level (log10) ([3]; 6700 nM),level (log10) ([3]; 20000 nM),level (log10) ([3]; 60000 nM),level (log10) ([4]; 6700 nM),level (log10) ([4]; 20000 nM),level (log10) ([4]; 60000 nM),level (log10) (Methotrexate; 1500 nM),level (log10) (Methotrexate; 4400 nM),level (log10) (Methotrexate; 13000 nM),level (log10) (Methotrexate; 40000 nM),level (log10) ([5]; 6700 nM),level (log10) ([5]; 20000 nM),level (log10) ([5]; 60000 nM)
HDF3CGF:Collagen I,-0.0145 ± 0.0021,-0.0495 ± 0.064,0.016 ± 0.033,-0.0205 ± 0.0092,-0.0685 ± 0.015,-0.022 ± 0.0042,0.029 ± 0.0014,-0.01 ± 0.025,0.035,0.0165 ± 0.061,0.0025 ± 0.042,0.0345 ± 0.03,-0.0495 ± 0.079,-0.077 ± 0.083,-0.068 ± 0.095,-0.0415 ± 0.035,0.025 ± 0.051,0.0485 ± 0.066,0.027 ± 0.052
KF3CT:PAI-I,0.005 ± 0.0099,0.008 ± 0.0014,0.014,0.001 ± 0.0042,-0.0435 ± 0.012,-0.0255 ± 0.018,-0.0015 ± 0.021,0.023 ± 0.018,-0.341,-0.0035 ± 0.0035,-0.006 ± 0.0014,0.0025 ± 0.0092,0.006 ± 0.014,-0.036 ± 0.031,-0.0145 ± 0.025,-0.007 ± 0.1,-0.016 ± 0.02,0.0005 ± 0.0078,-0.032 ± 0.0042
3C:CD142/Tissue Factor,-0.012 ± 0.021,-0.017 ± 0.0014,0.001 ± 0.0099,-0.0805 ± 0.026,-0.158 ± 0.0035,0.0035 ± 0.14,-0.0585 ± 0.028,-0.0685 ± 0.032,-0.107,-0.0195 ± 0.07,-0.009 ± 0.052,-0.028,-0.0325 ± 0.042,-0.0135 ± 0.033,-0.0175 ± 0.081,-0.005 ± 0.061,0.0065 ± 0.015,-0.0025 ± 0.021,-0.0445 ± 0.036
HDF3CGF:EGFR,-0.018 ± 0.09,-0.0115 ± 0.057,-0.064 ± 0.041,-0.029 ± 0.057,-0.146 ± 0.038,0.037 ± 0.0085,-0.0015 ± 0.015,0.003 ± 0.023,-0.224,-0.0265 ± 0.015,-0.016 ± 0.054,-0.016 ± 0.0085,-0.0035 ± 0.018,-0.008 ± 0.0099,-0.011 ± 0.028,-0.021 ± 0.027,-0.0165 ± 0.016,-0.056 ± 0.0057,-0.034 ± 0.0028
MyoF:alpha-SM Actin,-0.0195 ± 0.0078,-0.0025 ± 0.0035,-0.002 ± 0.011,-0.004 ± 0.0028,-0.14 ± 0.035,-0.021 ± 0.024,-0.0025 ± 0.019,-0.041 ± 0.03,-0.395,0.0075 ± 0.019,0 ± 0.011,-0.012 ± 0.025,-0.001 ± 0.0028,-0.0225 ± 0.0092,-0.008 ± 0.0071,-0.017 ± 0.033,-0.052 ± 0.011,-0.0625 ± 0.022,-0.0765 ± 0.019
CASM3C:CD141/Thrombomodulin,0.0205 ± 0.011,0 ± 0.042,0.0115 ± 0.036,-0.0085 ± 0.021,0.0575 ± 0.0035,0.0135 ± 0.0021,-0.0225 ± 0.028,-0.0335 ± 0.04,0.026,-0.0075 ± 0.0092,-0.006 ± 0.025,-0.0125 ± 0.019,0.0595 ± 0.005,-0.008 ± 0.093,0.0155 ± 0.098,0.044 ± 0.021,-0.002 ± 0.0014,0.032 ± 0.0085,0.067 ± 0.041
lMphg:CCL3/MIP-1alpha,-0.0095 ± 0.0092,-0.0355 ± 0.044,-0.0065 ± 0.012,0.116 ± 0.047,0.116 ± 0.062,0.079 ± 0.011,-0.0375 ± 0.005,-0.02 ± 0.016,-0.473,-0.03 ± 0.021,-0.035 ± 0.024,-0.0245 ± 0.018,-0.0375 ± 0.016,-0.0305 ± 0.00071,0.0035 ± 0.012,0.029 ± 0.027,-0.007 ± 0.0014,0.0145 ± 0.0021,0.0465 ± 0.033
BE3C:PAI-I,-0.0505 ± 0.043,-0.003 ± 0.055,0.017 ± 0.064,-0.119 ± 0.016,-0.189 ± 0.0085,-0.055 ± 0.021,0.041 ± 0.0085,-0.0655 ± 0.0035,-0.192,-0.0015 ± 0.0035,-0.0005 ± 0.00071,-0.0045 ± 0.00071,-0.0595 ± 0.015,-0.031 ± 0.045,-0.051 ± 0.048,-0.0665 ± 0.084,-0.0365 ± 0.019,-0.0745 ± 0.016,-0.057 ± 0.0099
MyoF:bFGF,0.007 ± 0.0099,-0.01 ± 0.0085,0.007 ± 0.024,-0.0075 ± 0.012,-0.0225 ± 0.0092,0.002 ± 0.018,-0.007 ± 0.011,0.0005 ± 0.00071,0.005,-0.004 ± 0.0042,-0.0155 ± 0.011,-0.006 ± 0.0028,-0.0095 ± 0.015,-0.0045 ± 0.021,0.009 ± 0.0071,-0.0095 ± 0.0035,-0.0005 ± 0.0021,0.012 ± 0.0071,0.009 ± 0.017
HDF3CGF:TIMP-1,-0.0075 ± 0.0078,-0.007 ± 0.024,-0.019 ± 0.03,0.015 ± 0.027,0.0205 ± 0.032,-0.013 ± 0.0042,0.0025 ± 0.0078,0.0135 ± 0.0092,-0.307,-0.0195 ± 0.047,0.011 ± 0.02,-0.001 ± 0.042,-0.08 ± 0.073,-0.047 ± 0.082,-0.0525 ± 0.14,-0.0755 ± 0.1,-0.026 ± 0.027,-0.0285 ± 0.047,-0.023 ± 0.025
CASM3C:Serum Amyloid A,0.0145 ± 0.0078,0.03 ± 0.021,0.0075 ± 0.0064,0.0545 ± 0.0078,0.0595 ± 0.015,0.0015 ± 0.016,-0.011 ± 0.0042,-0.016 ± 0.0057,-0.059,-0.028 ± 0.027,-0.026 ± 0.04,0.0045 ± 0.044,-0.0405 ± 0.015,-0.0145 ± 0.028,0.002 ± 0.045,-0.044 ± 0.068,-0.0445 ± 0.021,-0.0515 ± 0.0078,0.0015 ± 0.06
lMphg:CXCL8/IL-8,0.037 ± 0.038,0.026 ± 0.021,0.027 ± 0.038,0.0875 ± 0.061,0.161 ± 0.066,0.076 ± 0.024,0.03 ± 0.035,0.0055 ± 0.018,-0.19,-0.0095 ± 0.016,-0.018 ± 0.0042,-0.007 ± 0.044,0.0075 ± 0.046,-0.017,0.003 ± 0.023,0.044 ± 0.0057,0.022 ± 0.0057,0,0.022 ± 0.057
lMphg:CD62E/E-Selectin,-0.0085 ± 0.015,-0.0005 ± 0.013,-0.031 ± 0.0028,0.0515 ± 0.013,-0.139 ± 0.018,0.024 ± 0.023,-0.0175 ± 0.005,-0.102 ± 0.11,-0.8,0.023 ± 0.082,-0.0245 ± 0.076,-0.0085 ± 0.076,-0.009 ± 0.0099,-0.0265 ± 0.028,-0.0135 ± 0.019,-0.011 ± 0.033,-0.0225 ± 0.0064,0.022 ± 0.0014,0.0635 ± 0.019
